Experimental data published in EP4245365B1, “A FXR SMALL MOLECULE AGONIST, THE PREPARATION AND USE THEREOF” (Cascade Pharmaceuticals, Inc., priority 2022, dated 2023).
Like-named read-outs stand apart in the source and are kept apart here. One block for each compound: values may come before it.

Assays:
FXR = target: T1, FXR (Homo sapiens, UniProt Q96RI1); assay: FXR agonistic activity by reporter gene (pGAL4-FXR-LBD / pG5-Luc, Dual-Glo luciferase) in HEK293T cells; type: cell-based
T1 construct: expressed in transfected cells; host or cells: HEK293T
T1 sequence (Q96RI1 212-476 isoform Q96RI1-1): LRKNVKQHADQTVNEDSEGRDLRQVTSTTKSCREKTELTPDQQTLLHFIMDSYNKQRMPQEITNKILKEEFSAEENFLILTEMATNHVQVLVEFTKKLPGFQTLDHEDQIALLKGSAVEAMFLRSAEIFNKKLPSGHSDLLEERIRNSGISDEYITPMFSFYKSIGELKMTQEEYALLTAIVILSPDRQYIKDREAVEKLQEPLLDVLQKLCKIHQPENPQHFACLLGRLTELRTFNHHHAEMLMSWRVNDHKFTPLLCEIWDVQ
Method: 1.2 Plasmid Co-transfection of HEK293T Cells and Compound Treatment HEK293T cells were seeded in 96-well plates at a density of 1×10^4/well one day before plasmid transfection. […] 2 duplicate wells were set up in total. […] The dose-response curves were fitted with four parameters using GraphPad Prism 6.0 software, and EC50 values were calculated.

[1] = mouse, in vivo, iv, 1 mg/kg
Method: (§1) In each group of embodiment, 6 male ICR mice with a similar body weight were selected, of which 3 mice were dosed orally in a single dose of 3 mg/kg, and 3 mice were dosed intravenously in a single dose of 1 mg/kg. Blood samples were collected at time points of 15 min, 30 min, 1 h, 2 h, 4 h and 7 h after administration. The concentrations of plasma samples were analyzed by LC-MS/MS.
(§2) 12 healthy male ICR mice, commercially available from Charles River with an animal production license NO.: 2021123 1Abzz0619000376, were divided into 4 groups, 3 in each group.
(§3) Formulation preparation: a certain amount of compounds were weighed and added into a 2% DMSO+15% Solutol+83% saline, to prepare a clear solution.
(§4) Dosage: ICR mice were fasted overnight and given each compound at an oral dose of 3 mg/kg or an intravenous dose of 1 mg/kg. The administrated volume for oral and intravenous administration are 10 mL/kg and 5 mL/kg, respectively.
(§5) Sample collection: About 30 µL of blood was collected via great saphenous vein at 15 min, 30 min, 1 h, 2 h, 4 h and 7 h after dosage. The blood was placed into a commercial tube containing K2-EDTA. Plasma samples were then obtained by centrifuging the blood samples at approximately 4°C, 4600 rpm for 5 minutes. All plasma samples were then quickly frozen on dry ice and kept at -70°C until LC-MS/MS analysis.
(§6) Sample preparation: 10 µL of plasma samples were precipitated by methanol containing 50 nmol/L of α-naphthoflavone as internal standard. The mixture was votex-mixed well and centrifuged at 14000 rpm for 5 min at 4°C. 75 µL of the supernatant was taken and mixed with 75 µL of methanol, and introduced for LC-MS/MS analysis.

in vivo = conditions: mouse, po, 3 mg/kg
Method: as §1, §2, §3, §4, §5, §6

[2] = Cellular Level Activity EC50(nM) of FXR, HEK293T cells co-transfected with pGAL4-FXR-LBD, pG5-Luc, phRL-TK, 24 h treatment
[3] = HEK293T cells co-transfected with pGAL4-FXR-LBD, pG5-Luc, phRL-TK, 24 h treatment, read-out: Cellular Level Activity EC50(nM) of FXR
[4] = HEK293T reporter gene assay, read-out: EC50 values (FXR agonistic activity)
[5] = EC50 values (FXR agonistic activity), HEK293T reporter gene assay

SMILES: O=c1[nH]c(-c2ccc(N3[C@@H]4CC[C@H]3C[C@@H](OCc3c(-c5c(Cl)cccc5Cl)noc3C3CC3)C4)cc2F)no1 [Control 1, reference compound]
- EC50 (FXR; [2]): 5 to 10 nM

SMILES: O=c1[nH]c(-c2ccc(N3C4CCC3CC(OCc3c(-c5ccccc5C(F)(F)F)noc3C3CC3)C4)cc2F)no1 (stereo not shown) [Embodime nt 1]
- CL_obs [1]: 20.5 ± 4.6 mL/min/kg
- Vss_obs [1]: 0.418 ± 0.076 L/kg
- AUC(0-t) at 7 h (in vivo): 318 ± 172 ng·h/mL
- Cmax (in vivo): 312 ± 140 ng/mL
- bioavailability (in vivo): 12.6%

SMILES: [2H]C([2H])(O[C@H]1C[C@H]2CC[C@@H](C1)N2c1ccc(-c2noc(=O)[nH]2)c(F)c1)c1c(-c2ccccc2C(F)(F)F)noc1C1CC1 [Embodime nt 2]
- CL_obs [1]: 21.6 ± 2.4 mL/min/kg
- Vss_obs [1]: 0.704 ± 0.033 L/kg
- AUC(0-t) at 7 h (in vivo): 587 ± 54 ng·h/mL
- Cmax (in vivo): 555 ± 25 ng/mL
- bioavailability (in vivo): 25.2%

SMILES: [2H]C([2H])(OC1CC2CCC(C1)N2c1ccc(-c2noc(=O)[nH]2)cc1)c1c(-c2c(Cl)cccc2Cl)noc1C1CC1 (stereo not shown) [Example 1]
- EC50 (FXR; [3]): < 5 nM
- EC50 (FXR; [4]): < 5 nM

SMILES: [2H]C([2H])(OC1CC2CCC(C1)N2c1ccc(-c2noc(=O)[nH]2)c(F)c1)c1c(-c2c(Cl)cccc2Cl)noc1C1CC1 (stereo not shown) [Example 3]
- EC50 (FXR; [2]): < 5 nM
- EC50 (FXR; [5]): < 5 nM
- FXR agonistic activity / cellular level activity (in words) (FXR; HEK293T reporter gene assay, comparison with LJN452 and Control 1): significantly improved activity

SMILES: [2H]C(OC1CC2CCC(C1)N2c1ccc(-c2noc(=O)[nH]2)c(F)c1)c1c(-c2c(Cl)cccc2Cl)noc1C1CC1 (stereo not shown) [Example 4]
- EC50 (FXR; [2]): < 5 nM
- EC50 (FXR; [5]): < 5 nM

Continued, values first:

- EC50 (FXR; [3]): < 5 nM
- EC50 (FXR; [4]): < 5 nM
SMILES: [2H]C([2H])(OC1CC2CCC(C1)N2c1ccc(-c2noc(=O)[nH]2)nc1)c1c(-c2c(Cl)cccc2Cl)noc1C1CC1 (stereo not shown) [Example 2]

- EC50 (FXR; [3]): 5 to 10 nM
SMILES: [2H]C([2H])(OC1CC2CCC(C1)N2c1ccc(-c2noc(=O)[nH]2)c(C)c1)c1c(-c2c(Cl)cccc2Cl)noc1C1CC1 (stereo not shown) [Example 5]

- EC50 (FXR; [3]): 5 to 10 nM
SMILES: [2H]C([2H])(OC1CC2CCC(C1)N2c1ccc(-c2noc(=O)[nH]2)c(OC)c1)c1c(-c2c(Cl)cccc2Cl)noc1C1CC1 (stereo not shown) [Example 6]

- EC50 (FXR; [3]): 5 to 10 nM
SMILES: [2H]C([2H])(OC1CC2CCC(C1)N2c1ccc(-c2noc(=O)[nH]2)c(C(F)(F)F)c1)c1c(-c2c(Cl)cccc2Cl)noc1C1CC1 (stereo not shown) [Example 7]

- EC50 (FXR; [3]): 5 to 10 nM
SMILES: [2H]C([2H])(OC1CC2CCC(C1)N2c1ccc(-c2noc(=O)[nH]2)c(F)c1)c1c(-c2ccccc2C(F)(F)F)noc1C1CC1 (stereo not shown) [Example 8]

- EC50 (FXR; [3]): 5 to 10 nM
SMILES: [2H]C([2H])(OC1CC2CCC(C1)N2c1ccc(-c2noc(=O)[nH]2)c(F)c1)c1c(-c2ccccc2OC(F)(F)F)noc1C1CC1 (stereo not shown) [Example 9]
